In one assay the test system is S. aureus 8325-4. In words: S. aureus growth by turbidometry in micro-titre plates. It is filed as cell-based, Staphylococcus aureus. Particulars: Staphylococcus aureus, 83254, read-out: IC50 value (50% decrease in terminal absorbance); overnight, absorbance 620 nm. The method, then:
Tryptic soy broth (0.18 ml) containing S. aureus 8325-4 (approximately 10^5 cells) was mixed with 20 μl 20% (v/v) DMSO vehicle±compound in the wells of a flat-bottomed clear polystyrene 96-well micro-titre plate. The plate was incubated overnight at 37° C./220 rpm and the absorbance measured at 620 nm the following day.

For assay [1], the target named is T1, metalloprotease (aureolysin) activity in Staphylococcus aureus 8325-4 culture supernatants (Staphylococcus aureus, UniProt P81177).
T1 construct: 4 μl S. aureus culture supernatant; endogenous in cells; host or cells: Staphylococcus aureus 8325-4 (culture supernatant)
Briefly: Metalloprotease activity in S. aureus culture supernatants. Format: biochemical. Here is the method:
The culture was then centrifuged to remove the cells and the supernatant stored at −70° C. for subsequent use. […] Activity was expressed as the rate of increase in fluorescence as a function of time.

The target of assay [2] is T2, purified aureolysin type I (Staphylococcus aureus, UniProt P81177).
T2 construct: purchased BioCentrum Ltd
In words: biochemical.

Assay [3] addresses T3, purified aureolysin type II (Staphylococcus aureus, UniProt P81177).
T3 sequence (P81177 1-509): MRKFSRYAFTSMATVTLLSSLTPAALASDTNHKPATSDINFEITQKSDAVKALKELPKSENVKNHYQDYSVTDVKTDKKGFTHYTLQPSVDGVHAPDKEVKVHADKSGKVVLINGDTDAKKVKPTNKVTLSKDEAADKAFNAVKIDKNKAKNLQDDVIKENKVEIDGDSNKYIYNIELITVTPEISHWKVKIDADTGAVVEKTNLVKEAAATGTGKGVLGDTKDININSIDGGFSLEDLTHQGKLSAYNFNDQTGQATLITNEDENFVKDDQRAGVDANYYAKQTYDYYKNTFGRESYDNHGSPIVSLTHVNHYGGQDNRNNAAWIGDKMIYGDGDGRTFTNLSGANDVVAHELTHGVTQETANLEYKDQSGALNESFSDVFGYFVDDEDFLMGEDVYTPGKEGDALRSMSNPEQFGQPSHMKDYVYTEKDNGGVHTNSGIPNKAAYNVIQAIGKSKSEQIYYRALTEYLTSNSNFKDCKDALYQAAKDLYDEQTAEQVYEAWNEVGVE
In words: Aureolysin enzyme inhibition assay, type II. It is filed as biochemical.

The test system of assay [4] is S. aureus ATCC 27733 or 8325-4. In words: Milk agar plate assay of S. aureus protease activity. Format: cell-based, Staphylococcus aureus. The settings on record: FIG. 2. The method, then: In a second assay for measuring S. aureus protease activity directly, S. aureus ATCC 27733 or 8325-4 was cultured on 10% (v/v) skimmed milk agar plates containing 2% (v/v) DMSO with or without compound. Compounds dissolved in DMSO were incorporated into the solid medium immediately prior to pouring.

The target in the next assay is T4, human MMP-8 (Homo sapiens, UniProt P22894).
T4 construct: purchased Calbiochem
T4 sequence (P22894 101-467): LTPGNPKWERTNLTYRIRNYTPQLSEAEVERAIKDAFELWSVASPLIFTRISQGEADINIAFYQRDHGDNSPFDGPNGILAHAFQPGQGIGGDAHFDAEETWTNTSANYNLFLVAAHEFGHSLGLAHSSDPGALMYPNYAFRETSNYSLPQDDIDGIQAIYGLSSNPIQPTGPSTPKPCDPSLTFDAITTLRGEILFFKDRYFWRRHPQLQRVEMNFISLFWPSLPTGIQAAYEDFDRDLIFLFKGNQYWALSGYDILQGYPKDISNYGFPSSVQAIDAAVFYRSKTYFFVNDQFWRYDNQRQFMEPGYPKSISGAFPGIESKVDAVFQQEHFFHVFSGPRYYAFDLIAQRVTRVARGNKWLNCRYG
Briefly: MMP enzyme inhibition assay, MMP-8. The settings on record: for IC50: pH 7.5, 37° C., 1 hour. Format: biochemical.

The target in another assay is T5, human MMP-9 (Homo sapiens, UniProt P14780).
T5 construct: purchased Calbiochem
T5 sequence (P14780 94-707): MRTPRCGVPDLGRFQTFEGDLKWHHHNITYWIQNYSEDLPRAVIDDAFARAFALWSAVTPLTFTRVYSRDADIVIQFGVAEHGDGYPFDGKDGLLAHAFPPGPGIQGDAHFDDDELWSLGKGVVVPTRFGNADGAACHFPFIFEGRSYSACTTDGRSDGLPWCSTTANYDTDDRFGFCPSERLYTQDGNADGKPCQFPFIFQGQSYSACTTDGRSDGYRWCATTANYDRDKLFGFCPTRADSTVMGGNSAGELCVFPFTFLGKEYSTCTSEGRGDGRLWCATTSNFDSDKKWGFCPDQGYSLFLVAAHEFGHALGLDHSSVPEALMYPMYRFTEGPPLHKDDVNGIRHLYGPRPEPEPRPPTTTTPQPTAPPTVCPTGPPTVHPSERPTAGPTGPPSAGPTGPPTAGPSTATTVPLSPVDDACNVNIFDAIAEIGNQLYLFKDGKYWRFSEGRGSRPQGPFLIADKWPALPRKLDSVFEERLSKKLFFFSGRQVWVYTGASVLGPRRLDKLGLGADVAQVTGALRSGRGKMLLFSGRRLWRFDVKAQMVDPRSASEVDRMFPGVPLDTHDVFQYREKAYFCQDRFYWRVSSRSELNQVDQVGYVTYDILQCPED
In words: MMP enzyme inhibition assay, MMP-9. It is filed as biochemical. Particulars: for IC50: pH 7.5, 37° C., 1 hour.

For a further assay, the target named is T6, human MMP-1 (Homo sapiens, UniProt P03956).
T6 construct: purchased Calbiochem
T6 sequence (P03956 100-469): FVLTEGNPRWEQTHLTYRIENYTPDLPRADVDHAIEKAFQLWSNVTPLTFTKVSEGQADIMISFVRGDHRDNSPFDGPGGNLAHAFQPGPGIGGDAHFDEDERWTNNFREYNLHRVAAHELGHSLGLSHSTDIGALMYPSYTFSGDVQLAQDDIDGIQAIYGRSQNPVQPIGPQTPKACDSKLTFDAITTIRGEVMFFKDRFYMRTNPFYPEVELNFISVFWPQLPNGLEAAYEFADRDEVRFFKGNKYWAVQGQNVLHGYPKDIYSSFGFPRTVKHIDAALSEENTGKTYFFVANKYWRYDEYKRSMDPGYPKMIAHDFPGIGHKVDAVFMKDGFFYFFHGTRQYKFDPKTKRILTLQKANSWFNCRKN
Briefly: MMP enzyme inhibition assay, MMP-1. Format: biochemical. Particulars: for IC50: pH 7.5, 37° C., 1 hour.

The next assay addresses T7, human MMP-2 (Homo sapiens, UniProt P08253).
T7 construct: purchased Calbiochem
T7 sequence (P08253 110-660): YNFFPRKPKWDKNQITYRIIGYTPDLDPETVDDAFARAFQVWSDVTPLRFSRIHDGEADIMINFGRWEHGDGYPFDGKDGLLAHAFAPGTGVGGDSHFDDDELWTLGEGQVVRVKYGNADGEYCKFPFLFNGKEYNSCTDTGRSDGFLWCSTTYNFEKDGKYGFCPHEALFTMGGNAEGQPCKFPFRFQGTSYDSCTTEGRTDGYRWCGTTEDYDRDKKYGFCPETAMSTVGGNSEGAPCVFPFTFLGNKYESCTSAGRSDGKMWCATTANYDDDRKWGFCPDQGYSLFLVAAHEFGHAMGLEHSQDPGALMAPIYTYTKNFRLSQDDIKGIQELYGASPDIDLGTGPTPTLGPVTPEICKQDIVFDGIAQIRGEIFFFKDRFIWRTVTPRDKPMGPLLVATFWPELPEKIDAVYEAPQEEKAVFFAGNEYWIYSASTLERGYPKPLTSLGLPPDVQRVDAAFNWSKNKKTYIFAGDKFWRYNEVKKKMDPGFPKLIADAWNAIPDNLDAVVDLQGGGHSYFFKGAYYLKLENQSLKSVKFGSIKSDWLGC
In words: MMP enzyme inhibition assay, MMP-2. Format: biochemical. The settings on record: for IC50: pH 7.5, 37° C., 1 hour.

The next assay concerns the target aureolysin (Staphylococcus aureus, UniProt P81177). Briefly: Inhibition of aureolysin-mediated pro-uPA activation. The settings on record: for Urokinase activity after pro-uPA activation: Expt. 2, Compound 13 20 μM, pH 5.6.
The test system of assay [5] is Human skin epidermal keratinocytes. In words: Keratinocyte activation, IL-8 production. Format: cell-based. Particulars: 48 hours, aureolysin 50 μg/ml. The source says:
Activated keratinocytes produce IL-8, a proinflammatory chemokine. Many bacterial products cause the activation of keratinocytes. Aureolysin may be evaluated for its effects on IL-8 production by keratinocytes. Human skin epidermal keratinocytes (TCS Cellworks) are maintained as per instructions. Proliferating cultures are trypsinised, harvested, treated with a trypsin inhibitor and resuspended in growth medium at approximately 50,000 cells/well, to provide confluent monolayers in 96 well plates. Cells are incubated overnight at 37° C. at 5% CO2 to allow recovery, the spent medium aspirated from the wells and replaced with fresh growth medium. The cells are incubated at 37° C. at 5% CO2 for a further 24 or 48 hours with aureolysin or buffer control.
The supernatants are removed from each well and the concentration of IL-8 is determined using a human IL-8 ELISA development kit from R&D systems (Catalog Number: DY208) using the manufacturers instructions.
In these experiments, the cells are incubated at 37° C. at 5% CO2 for 48 hours with aureolysin or buffer control. Poly IC and lipoteichoic acid (LTA), which stimulate IL-8 production in keratinocytes were used as positive controls.

Where [6] appears, read: pH 6.8, 37° C., 1 hour; read-out: IC50 value Aureolysin type II.

“And” between values parts separate entries of the source, which are not always exact repeats. Equal entries are not always repeated. Where two headings read alike, the source gives them in different places.

Take `CCCCC[C@H](CC(=O)NO)C(=O)N[C@H](C(=O)N1CCC[C@H]1CO)C(C)C` [Actinonin, actinonin, reference compound]: in the assay with S. aureus 8325-4, the half-inhibitory concentration (IC50) was 2600 nM.

Take `CNC(=O)[C@H](Cc1c[nH]c2ccccc12)NC(=O)[C@@H](CC(=O)NO)CC(C)C` [Compound 1, ilomastat]: the IC50 came out at 570 nM in assay [1], 260 nM in [2] and 430 nM in [3] (setting [6]).

In the case of `CNC(=O)[C@@H](NC(=O)[C@H](CC(C)C)[C@H](O)C(=O)NO)C(C)(C)C` [Compound 3, marimastat], in [4], the “inhibition of proteolytic activity, zone of clearance of milk proteins (in words)” value is on record as “inhibition of proteolytic activity”.

In the case of `CC(C)C[C@@H](C(=O)N[C@H](C(=O)N(C)C)C(C)(C)C)[C@H](O)C(=O)NO` [Compound 5], the half-maximal inhibitory concentration (IC50) in [1] is 44000 nM; against human MMP-8 it was 3.9 nM; on human MMP-9, 30 nM; at human MMP-1, 11 nM; in [2], 27000 nM; in assay [3] (setting [6]), 41000 nM. Moreover, half-maximal inhibition against human MMP-2 (IC50) was put at 7.7 nM.

Take `CO[C@H](C(=O)NO)[C@@H](CC(C)C)C(=O)N[C@H](C(=O)Nc1ccccn1)C(C)(C)C` [Compound 7, solimastat]: the IC50 in assay [1] was found to be 4500 nM; against human MMP-8, 1.7 nM; against human MMP-9, 5.1 nM; against human MMP-1 it was 3.3 nM; in assay [2] it was 2200 nM; in assay [3] (setting [6]), 3500 nM. The midpoint of inhibition on human MMP-2, the IC50, lay at 3.2 nM.

`CC(C)C[C@@H](C(=O)N[C@H](C(=O)Nc1ccccn1)C(C)(C)C)[C@H](O)C(=O)NO` [Compound 9]: the IC50 in [1] is 2900 nM; on human MMP-8, 1.7 nM; on human MMP-9 it was 4.1 nM; at human MMP-1 it was 3.1 nM; in [2], 1500 nM; in assay [3] (setting [6]), 2400 nM. Further, on human MMP-2, the IC50 came out at 1.8 nM.

As to `CNC(=O)C(CCc1ccccc1)NC(=O)C(CC(=O)NO)CC(C)C` (stereo not shown) [Compound 13], the IC50 came out at 690 nM in assay [1]; 1.6 nM against human MMP-8; 1.9 nM against human MMP-9; 5.6 nM against human MMP-1; 330 nM in assay [2]; 690 nM in [3] (setting [6]). The midpoint of inhibition at human MMP-2, the IC50, lay at 1.1 nM. Besides, the “Urokinase activity after pro-uPA activation” value on aureolysin (aureolysin 0 μg/ml) came out at 0.11 A405/0.5 h/μg; on aureolysin (aureolysin 0.1 μg/ml) it was 0.36 A405/0.5 h/μg; at aureolysin (aureolysin 0.3 μg/ml) it was 0.52 A405/0.5 h/μg; at aureolysin (aureolysin 0.8 μg/ml), 0.96 A405/0.5 h/μg. Also, the inhibition at 20 µM at aureolysin (pH 5.6, read-out: inhibition of aureolysin activation of pro-uPA) was at least 82%.

`COc1ccc(S(=O)(=O)N(CC(=O)NO)CC(C)C)cc1` [Compound 14]: the half-maximal inhibitory concentration (IC50) amounted to 3600 nM in assay [1]; 21 nM against human MMP-8; 10 nM against human MMP-9; 1000 nM in [2]; 2500 nM in [3] (read-out: IC50 value Aureolysin type II; pH 6.8, 37° C., 1 hour); 4.6 nM on human MMP-2.

For `CC(C)C[C@H](NP(=O)(O)O[C@@H]1O[C@@H](C)[C@H](O)[C@@H](O)[C@H]1O)C(=O)N[C@@H](Cc1c[nH]c2ccccc12)C(=O)O` [Compound 15, phosphoramidon], the concentration for half-maximal inhibition (IC50) came out at 3300 nM in [1], 2800 nM in [2] and 2300 nM in [3] (setting [6]). The inhibition at 2.7 µM at human MMP-8 (@ 2.7 μM), against human MMP-9 (@ 2.7 μM), at human MMP-1 (@ 2.7 μM) and at human MMP-2 (@ 2.7 μM) was 0% each time.

Regarding `CNC(=O)[C@H](CCc1ccccc1)NC(=O)[C@H](CC(=O)NO)CC(C)C` [Compound 16, (S)—N4-hydroxy-2-isobutyl-N1-((S)-1-(methylamino)-1-oxo-4-phenylbutan-2-yl)succinamide], the IC50 in assay [1] came out at 95 nM; against human MMP-8 it was 1600 nM; on human MMP-9, 2000 nM; on human MMP-1, 6200 nM; in assay [2] it was 57 nM; in assay [3] (setting [6]) it was 93 nM. It took 2100 nM to reach half-maximal inhibition at human MMP-2 (IC50).

In the case of `CNC(=O)[C@H](CCc1ccccc1)NC(=O)[C@@H](CC(=O)NO)CC(C)C` [Compound 17, (R)—N4-hydroxy-2-isobutyl-N1-((S)-1-(methylamino)-1-oxo-4-phenylbutan-2-yl)succinamide], the IC50 in assay [1] came out at 2300 nM; against human MMP-8, 4.4 nM; against human MMP-9, 5.9 nM; against human MMP-1 it was 17 nM; in [2], 1200 nM; in assay [3] (setting [6]), 2300 nM. Moreover, the 50% inhibitory concentration (IC50) at human MMP-2 amounted to 2.4 nM.

With Poly IC, the “IL-8 ± SE” value in assay [5] is 282 pg/mL and 282 ± 0.9 pg/mL.

As for lipoteichoic acid [LTA], the “IL-8 ± SE” value in assay [5] was 454 pg/mL and 454 ± 61.0 pg/mL.
